Patent US11331369B2, “Endoparasitic depsipeptides” (Zoetis Services LLC, priority 2017, dated 2022)

Key:
Type in all cases: cell-based
[1] = tested on: 4th stage larvae (L4) of Dirofilaria immitis; assay: Dirofilaria immitis, L4 Stage (DiL4) In Vitro Assay; conditions: Dirofilaria immitis, 72 h, read-out: DiL4 Minimum Effective Dose (MED), approximately 72 hours incubation; L4 larvae assessed for survival or paralysis
[2] = tested on: microfilariae of Dirofilaria immitis; assay: Dirofilaria immitis, Microfilaria (DiMF) In vitro Assay; conditions: 72 h, read-out: DiMF Minimum Effective Dose (MED), approximately 72 hours incubation, microfilariae assessed for survival or paralysis
[3] = tested on: third stage larvae of Haemonchus contortus; assay: Haemonchus contortus L3 (HcL3) Assay; conditions: 96 h, read-out: HcL3 Minimum Effective Dose (MED)

SMILES	minimal effective concentration [1]	minimal effective concentration [2]	minimal effective concentration [3]
CC(C)C[C@H]1C(=O)O[C@H](Cc2ccc(Cn3nccc3C3(Cl)CC3)cc2)C(=O)N(C)[C@@H](CC(C)C)C(=O)O[C@H](C)C(=O)N(C)[C@@H](CC(C)C)C(=O)O[C@H](Cc2ccc(Cn3nccc3C3(Cl)CC3)cc2)C(=O)N(C)[C@@H](CC(C)C)C(=O)O[C@H](C)C(=O)N1C [Example 1b-217, (3S,6R,9S,12R,15S,18R,21S,24R)-6,18-bis(4-((5-(1-chlorocyclopropyl)-1H-pyrazol-1-yl)methyl)benzyl)-3,9,15,21-tetraisobutyl-4,10,12,16,22,24-hexamethyl-1,7,13,19-tetraoxa-4,10,16,22-tetraazacyclotetracosan-2,5,8,11,14,17,20,23-octaone]	0.0001 to 0.001 µM	0.01 to 0.1 µM	≤ 1 µM
COCCOc1cnn(Cc2ccc(C[C@H]3OC(=O)[C@H](CC(C)C)N(C)C(=O)[C@@H](C)OC(=O)[C@H](CC(C)C)N(C)C(=O)[C@@H](Cc4ccc(Cn5cc(OCCOC)cn5)cc4)OC(=O)[C@H](CC(C)C)N(C)C(=O)[C@@H](C)OC(=O)[C@H](CC(C)C)N(C)C3=O)cc2)c1 [Example 1b-203, (3S,6R,9S,12R,15S,18R,21S,24R)-3,9,15,21-tetraisobutyl-6,18-bis[[4-[[4-(2-methoxyethoxy)pyrazol-1-yl]methyl]phenyl]methyl]-4,10,12,16,22,24-hexamethyl-1,7,13,19-tetraoxa-4,10,16,22-tetrazacyclotetracosane-2,5,8,11,14,17,20,23-octaone]	0.001 to 0.01 µM	0.001 to 0.01 µM	10 to 100 µM
CC(C)C[C@H]1C(=O)O[C@H](Cc2ccc(Cn3nccc3C(C)(C)C)cc2)C(=O)N(C)[C@@H](CC(C)C)C(=O)O[C@H](C)C(=O)N(C)[C@@H](CC(C)C)C(=O)O[C@H](Cc2ccc(Cn3nccc3C(C)(C)C)cc2)C(=O)N(C)[C@@H](CC(C)C)C(=O)O[C@H](C)C(=O)N1C [Example 1b-127, (3S,6R,9S,12R,15S,18R,21S,24R)-6,18-bis(4-((5-(tert-butyl)-1H-pyrazol-1-yl)methyl)benzyl)-3,9,15,21-tetraisobutyl-4,10,12,16,22,24-hexamethyl-1,7,13,19-tetraoxa-4,10,16,22-tetraazacyclotetracosan-2,5,8,11,14,17,20,23-octaone]	0.001 to 0.01 µM	0.01 to 0.1 µM	1 to 10 µM
CC(C)C[C@H]1C(=O)O[C@H](Cc2ccc(Cn3nccc3C3CC3(F)F)cc2)C(=O)N(C)[C@@H](CC(C)C)C(=O)O[C@H](C)C(=O)N(C)[C@@H](CC(C)C)C(=O)O[C@H](Cc2ccc(Cn3nccc3C3CC3(F)F)cc2)C(=O)N(C)[C@@H](CC(C)C)C(=O)O[C@H](C)C(=O)N1C (stereo partly drawn) [Example 1b-216, (3S,6R,9S,12R,15S,18R,21S,24R)-6,18-bis(4-((5-(2,2-difluorocyclopropyl)-1H-pyrazol-1-yl)methyl)benzyl)-3,9,15,21-tetraisobutyl-4,10,12,16,22,24-hexamethyl-1,7,13,19-tetraoxa-4,10,16,22-tetraazacyclotetracosan-2,5,8,11,14,17,20,23-octaone]	≤ 0.0001 µM	0.001 to 0.01 µM	≤ 1 µM
CC(C)C[C@H]1C(=O)O[C@H](Cc2cccc(Cn3ccnc3Cl)c2)C(=O)N(C)[C@@H](CC(C)C)C(=O)O[C@H](C)C(=O)N(C)[C@@H](CC(C)C)C(=O)O[C@H](Cc2ccc(Cn3ccnc3Cl)cc2)C(=O)N(C)[C@@H](CC(C)C)C(=O)O[C@H](C)C(=O)N1C [Example 7-9, (3S,6R,9S,12R,15S,18R,21S,24R)-6-(3-((2-chloro-1H-imidazol-1-yl)methyl)benzyl)-18-(4-((2-chloro-1H-imidazol-1-yl)methyl)benzyl)-3,9,15,21-tetraisobutyl-4,10,12,16,22,24-hexamethyl-1,7,13,19-tetraoxa-4,10,16,22-tetraazacyclotetracosan-2,5,8,11,14,17,20,23-octaone]	0.0001 to 0.001 µM	0.001 to 0.01 µM	1 to 10 µM
